# Source: patent US12275729B2 (Merck Sharp & Dohme LLC, priority 2017, dated 2025)
# Key:
# IDO1 [1] = molecular target: T1, IDO1 (Homo sapiens, UniProt P14902); assay: IDO1 Human Whole Blood Assay; format: cell-based; design: Human whole blood was drawn in sodium heparin coated tubes from healthy internal donors; from tissue; host or cells: human whole blood from healthy donors, stimulated with LPS and IFNγ; conditions: LPS and IFNγ stimulated
# Method: IDO1 Human Whole Blood Assay
# Compounds to be tested were serially diluted in ten 3-fold steps in DMSO starting from 10 mM. […] LPS and IFNγ was prepared in RPMI to a 10× of final conc. (1000 ng/mL), final concentration is 100 ng/mL.
# Human whole blood was drawn in sodium heparin coated tubes from healthy internal donors. 240 μL of blood was transferred to each of the wells of a v-bottom 96 well plate. 30 μL of compound was transferred from intermediate dilution plate, and incubated for 15 min. 30 μL from stimulants was then transferred to blood and mixed thoroughly.
# On day 2 isotope labeled standard of kynurenine and tryptophan was made in water at 1Ox concentration and 30 μL was added to the blood at […] final concentration. The assay plates were centrifuged at 300×G for 10 min with no brake to separate plasma from red blood cells. 60 μL of plasma samples was removed without disturbing red blood cells. Plasma was diluted with RPMI in 1:1 ratio and proteins were precipitated out with two volume of Acetonitrile. The plates were centrifuged at 4000×G for 60 min. 20 μL of supernatant was carefully transferred to a 384 well plate contain 40 μL of 0.1% formic acid in water and analyzed by LC/MS/MS.
# LC/MS/MS analyses were performed using Thermo Fisher's LX4-TSQ Quantum Ultra system. This system consists of four Agilent binary high-performance liquid chromatography (HPLC) pumps and a TSQ Quantum Ultra triple quadrupole MS/MS instrument. For each sample, 5 μL were injected onto an Atlantis T3 column (2.1 mm×150 mm, […] particle size) from Waters. The mobile phase gradient pumped at 0.8 mL/min was used to elute the analytes from the column at 25° C. […] Mobile phase A consisted of 0.1% formic acid in water. Mobile phase B consisted of 0.1% of formic acid in acetonitrile. Data was acquired in positive mode using a HESI interface. The operational parameters for the TSQ Quantum Ultra instrument were a spray voltage of 4000 V, capillary temperature of 380° C., vaporizer temperature 400° C., shealth gas 60 arbitrary units, Aux gas 20 arbitrary units, tube lens 85 and collision gas 1.2 mTorr. […] The peak area was integrated by Xcalibur Quan software. The ratios between the kynurenine generated in the reaction and 2D6-Kynurenine spiked-in internal standard were used to generate percentage inhibition and IC50 values.
# IDO1 [2] = molecular target: T1, IDO1; assay: IDO1 Cellular Assay in HeLa Cells Stimulated with IFNγ; format: cell-based
# [3] = about 48 hours, read-out: Hela IC50
# T1 sequence (P14902 whole entry): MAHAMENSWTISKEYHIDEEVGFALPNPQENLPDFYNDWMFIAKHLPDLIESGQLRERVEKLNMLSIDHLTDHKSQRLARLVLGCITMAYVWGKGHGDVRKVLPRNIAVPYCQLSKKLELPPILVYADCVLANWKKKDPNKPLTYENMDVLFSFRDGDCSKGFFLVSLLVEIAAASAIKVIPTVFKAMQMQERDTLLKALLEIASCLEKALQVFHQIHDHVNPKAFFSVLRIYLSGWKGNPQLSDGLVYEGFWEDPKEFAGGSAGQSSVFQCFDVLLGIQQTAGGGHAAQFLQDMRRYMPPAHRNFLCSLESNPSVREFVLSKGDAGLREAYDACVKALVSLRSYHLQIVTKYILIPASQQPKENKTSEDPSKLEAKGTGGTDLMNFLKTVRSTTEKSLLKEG
IC50 (IDO1 [1]),IC50 (IDO1 [2]; [3]),IC50 (IDO1 [2]; read-out: Hela IC50),"IC50 (IDO1 [2]; value in running text, read-out: Hela Cell IC50)",Structure (SMILES)
26 nM,1.7 nM,–,–,"CC(NC(=O)c1ccc(F)cc1)c1ccc2c(n1)CCCN2C(=O)c1ccccc1Cl (stereo not shown) [Example 141, N-{1-[5-(2-chlorobenzene-1-carbonyl)-5,6,7,8-tetrahydro-1,5-naphthyridin-2-yl]ethyl}-4-fluorobenzamide]"
321 nM,15.8 nM,–,–,"CC(C(=O)Nc1ccc(F)cc1)c1ccc2c(c1)CCCN2C(=O)c1cnn(C)c1 (stereo not shown) [Example 48, N-(4-fluorophenyl)-2-[1-(1-methyl-1H-pyrazole-4-carbonyl)-1,2,3,4-tetrahydroquinolin-6-yl]propanamide]"
115 nM,3.5 nM,–,–,"CC1(C(=O)N2CCCc3cc(C4(C(=O)Nc5ccc(F)cc5)CCC4)ccc32)CC1 [Example 104, N-(4-fluorophenyl)-1-[1-(1-methylcyclopropane-1-carbonyl)-1,2,3,4-tetrahydroquinolin-6-yl]cyclobutane-1-carboxamide]"
13 nM,1.72 nM,–,–,"Cc1ccnc(C(=O)N2CCCc3nc(C4(C(=O)Nc5ccc(Cl)cc5)COC4)ccc32)n1 [Example 399, N-(4-chlorophenyl)-3-(5-(4-methylpyrimidine-2-carbonyl)-5,6,7,8-tetrahydro-1,5-naphthyridin-2-yl)oxetane-3-carboxamide]"
29 nM,–,235 nM,–,"O=C(N[C@@H](c1ccc2c(n1)CCCN2C(=O)C1CC1)C(F)(F)F)c1ccc(F)cc1 [Example 425, (S)—N-(1-(5-(cyclopropanecarbonyl)-5,6,7,8-tetrahydro-1,5-naphthyridin-2-yl)-2,2,2-trifluoroethyl)-4-fluorobenzamide]"
44 nM,2.92 nM,–,–,"Cc1nccc(N2CCCc3nc(C(C)(C)C(=O)Nc4ccc(F)cc4)ccc32)n1 [Example 389, N-(4-fluorophenyl)-2-methyl-2-(5-(2-methylpyrimidin-4-yl)-5,6,7,8-tetrahydro-1,5-naphthyridin-2-yl)propanamide]"
239 nM,–,3400 nM,–,"CCN(CC)CCOC(=O)N1CCCc2nc(C(C)NC(=O)c3ccc(F)cc3)ccc21 (stereo not shown) [Example 324, 2-(diethylamino)ethyl 6-(1-(4-fluorobenzamido)ethyl)-3,4-dihydro-1,5-naphthyridine-1(2H)-carboxylate]"
1690 nM,–,69.2 nM,–,"Cc1cc(C)n(COC(=O)N2CCCc3nc(C(C)NC(=O)c4ccc(F)cc4)ccc32)n1 (stereo not shown) [Example 320, (3,5-dimethyl-1H-pyrazol-1-yl)methyl 6-(1-(4-fluorobenzamido)ethyl)-3,4-dihydro-1,5-naphthyridine-1(2H)-carboxylate]"
131 nM,1.6 nM,–,–,"O=C(Nc1ccc(F)cc1)C1(c2ccc3c(n2)CCCN3c2ccnc(C(F)(F)F)n2)COC1 [Example 393, N-(4-fluorophenyl)-3-(5-(2-(trifluoromethyl)pyrimidin-4-yl)-5,6,7,8-tetrahydro-1,5-naphthyridin-2-yl)oxetane-3-carboxamide]"
4 nM,1.87 nM,–,–,"O=C(Nc1ccc(F)cc1)C1(c2ccc3c(n2)CCCN3c2ccnc(C3CC3)n2)CCC1 [Example 401, 1-(5-(2-cyclopropylpyrimidin-4-yl)-5,6,7,8-tetrahydro-1,5-naphthyridin-2-yl)-N-(4-fluorophenyl)cyclobutane-1-carboxamide]"
67 nM,6.3 nM,–,–,"CC(NC(=O)c1ccc(F)cc1)c1ccc2c(n1)CCCN2C(=O)c1ccn(C)n1 (stereo not shown) [Example 138, 4-fluoro-N-{1-[5-(1-methyl-1H-pyrazole-3-carbonyl)-5,6,7,8-tetrahydro-1,5-naphthyridin-2-yl]ethyl}benzamide]"
58 nM,–,453 nM,–,"CC(NC(=O)c1ccc(F)cc1)c1ccc2c(n1)CCCN2C(=O)OCCCc1ccncc1 (stereo not shown) [Example 322, 3-(pyridin-4-yl)propyl 6-(1-(4-fluorobenzamido)ethyl)-3,4-dihydro-1,5-naphthyridine-1(2H)-carboxylate]"
254 nM,–,3.62 nM,–,"CC(C(=O)Nc1ccc(F)cc1)c1ccc2c(n1)CCCN2c1ccnc(C2CC2)n1 (stereo not shown) [Example 365, 2-(5-(2-cyclopropylpyrimidin-4-yl)-5,6,7,8-tetrahydro-1,5-naphthyridin-2-yl)-N-(4-fluorophenyl)propanamide]"
4 nM,–,–,3.3 nM,"Cc1nccc(N2CCCCc3nc(C4(NC(=O)c5ccc(F)cc5)CC4)ccc32)n1 [Example 432, 4-fluoro-N-(1-(5-(2-methylpyrimidin-4-yl)-6,7,8,9-tetrahydro-5H-pyrido[3,2-b]azepin-2-yl)cyclopropyl)benzamide]"
163 nM,1.51 nM,–,–,"Cc1cncc(N2CCCc3nc(C4(NC(=O)c5ccc(F)cc5)CC4)ccc32)n1 [Example 296, 4-fluoro-N-(1-(5-(6-methylpyrazin-2-yl)-5,6,7,8-tetrahydro-1,5-naphthyridin-2-yl)cyclopropyl)benzamide]"
143 nM,–,44.8 nM,–,"O=C(N[C@H](c1ccc2c(n1)CCCN2C(=O)C1CC1)C(F)(F)F)c1ccc(F)cc1 [Example 424, (R)—N-(1-(5-(cyclopropanecarbonyl)-5,6,7,8-tetrahydro-1,5-naphthyridin-2-yl)-2,2,2-trifluoroethyl)-4-fluorobenzamide]"
545 nM,7.9 nM,–,–,"CC(C(=O)Nc1ccc(F)cc1)c1ccc2c(c1)CCCN2Cc1cccc(Cl)c1 (racemic) [Example 224, 2-{1-[(3-chlorophenyl)methyl]-1,2,3,4-tetrahydroquinolin-6-yl}-N-(4-fluorophenyl)propanamide]"
35 nM,1.34 nM,–,–,"CC(C(=O)Nc1ccc(Cl)cc1)c1ccc2c(c1)CC(F)CN2C(=O)c1cccc(Cl)c1 (single isomer, unassigned) [Example 257, 2-(1-(3-chlorobenzoyl)-3-fluoro-1,2,3,4-tetrahydroquinolin-6-yl)-N-(4-chlorophenyl)propanamide]"
26 nM,1.23 nM,–,–,"Cc1nccc(N2CCCc3nc(C4(C(=O)Nc5ccc(F)cc5)COC4)ccc32)n1 [Example 395, N-(4-fluorophenyl)-3-(5-(2-methylpyrimidin-4-yl)-5,6,7,8-tetrahydro-1,5-naphthyridin-2-yl)oxetane-3-carboxamide]"
78 nM,–,24.6 nM,–,"CC(NC(=O)c1ccc(F)cc1)c1ccc2c(n1)CCCN2C(=O)OCC(F)F (stereo not shown) [Example 309, 2,2-difluoroethyl 6-(1-(4-fluorobenzamido)ethyl)-3,4-dihydro-1,5-naphthyridine-1(2H)-carboxylate]"
4 nM,2.8 nM,–,–,"O=C(OC1CC1)N1CCCc2nc(C3(C(=O)Nc4ccc(F)cc4)COC3)ccc21 [Example 266, cyclopropyl 6-(3-((4-fluorophenyl)carbamoyl)oxetan-3-yl)-3,4-dihydro-1,5-naphthyridine-1(2H)-carboxylate]"
32 nM,–,1.72 nM,–,"CC(NC(=O)c1ccc(Cl)cc1)c1ccc2c(n1)CCCN2c1ccnc(C(F)(F)F)n1 (stereo not shown) [Example 345, 4-chloro-N-(1-(5-(2-(trifluoromethyl)pyrimidin-4-yl)-5,6,7,8-tetrahydro-1,5-naphthyridin-2-yl)ethyl)benzamide]"
42 nM,1.91 nM,–,–,"Cc1cccc(N2CCCc3nc(C4(NC(=O)c5ccc(Cl)cc5)CCC4)ccc32)n1 [Example 405, 4-chloro-N-(1-(5-(6-methylpyridin-2-yl)-5,6,7,8-tetrahydro-1,5-naphthyridin-2-yl)cyclobutyl)benzamide]"
36 nM,5.7 nM,–,–,"CC(C(=O)Nc1ccc(F)cc1)c1ccc2c(c1)CCCN2C(=O)c1cc(C(F)F)ccn1 (stereo not shown) [Example 38, 2-{1-[4-(difluoromethyl)pyridine-2-carbonyl]-1,2,3,4-tetrahydroquinolin-6-yl}-N-(4-fluorophenyl)propanamide]"
1000 nM,–,71 nM,–,"Cc1nccc(N2CCCc3nc(C4(C(=O)Nc5ccc(F)cc5)CC(O)C4)ccc32)n1 (stereo not shown) [Example 426, 2-(1-((4-fluorophenyl)carbamoyl)-3-hydroxycyclobutyl)-5-(2-methylpyrimidin-4-yl)-5,6,7,8-tetrahydro-1,5-naphthyridin-1-ium 2,2,2-trifluoroacetate]"
2610 nM,1.9 nM,–,–,"Cc1nc(C(=O)N2CCCc3cc([C@H](C)C(=O)Nc4ccc(F)cn4)ccc32)no1 [Example 65, (2S)-N-(5-fluoropyridin-2-yl)-2-[1-(5-methyl-1,2,4-oxadiazole-3-carbonyl)-1,2,3,4-tetrahydroquinolin-6-yl]propanamide]"
